Laboratory results reported in ChEMBL document CHEMBL3507680, “University of Dundee, Gates Library screen for HepG2 cell viability”.

Experiment: Human HepG2 cell viability assay in 384 well format
Format: toxicity, cell-based
Parameters: dose 125 nL, time 70.5 hour; concentration not given beside the values
Settings: HepG2 cells, read-out: Inhibition

| SMILES | cytotoxicity at 70.5 h [%] |
| --- | --- |
| CC(C)(C)NC(=O)c1ccc(COCC(F)(F)F)o1 | -4.89 |
| CCn1nnc(NCc2ccccc2OCc2ccc(Cl)cc2)n1 | -7.27 |
| CC(=O)Nc1ccccc1Sc1nc(Br)nn1C | -4.88 |
| CC(=O)Nc1c(C)noc1/C=C\c1ccc(C)c(S(=O)(=O)NC2CC2)c1 | -6.84 |
| CN1C(=N)NC(=O)/C1=C\c1ccc(-c2ccc(F)cc2)o1 | 28.8 |
| CCCOC(=O)c1ccc(-c2ccc(/C=C3\C(=O)NC(=N)N3C)o2)cc1 | 18.1 |
| COCCNC(=O)c1ccc2c(=O)n3c(nc2c1)CCCCC3 | -22.9 |
| Cc1ccc(Nc2cc(N3CCN(S(C)(=O)=O)CC3)nc(C)n2)cc1 | -17.3 |
| COCCCNC(=O)Cn1c(C)cc(=O)n2nc(-c3cccs3)nc12 | -7.89 |
| COc1cccc(N2CCN(C(=O)c3noc4c3CCCC4)CC2)c1 | -20.2 |
| O=C(NCc1ccco1)c1cccc(C(=O)NCc2ccco2)n1 | -20.3 |
| Cc1ccc(S(=O)(=O)n2ccn(C(=O)CC(C)C)c2=O)cc1 | -19.3 |
| CCC(CC)C(=O)n1ccn(S(=O)(=O)c2ccc(C)cc2)c1=O | 15.1 |
| CCc1nc(-c2ccc(C(=O)N3CCC4(CC3)OCCO4)cc2)no1 | -21.2 |
| CCc1nc(-c2ccc(NC(=O)N3CCCC3)cc2)no1 | -19.3 |
| CCc1nc(-c2ccc(NC(=O)N3CCOCC3)cc2)no1 | -3.86 |
| O=C(Nc1ccc(Br)cc1F)c1cc(CN2CCOCC2)on1 | -5.21 |
| CCOC(=O)CNC(=O)NCc1cccn1Cc1ccccc1 | -13.4 |
| CCOC(=O)CNC(=O)NCc1cccn1Cc1cccc(C)c1 | -18.9 |
| COCCCNC(=O)NCc1cccn1Cc1ccccc1C | -20.3 |
| CCCN1CCN(C(=O)CCn2cccc2)CC1 | -5.28 |
| O=C(NCCCc1ccco1)c1cnc(N2CCOCC2)nc1 | -18.7 |
| CC(=O)N1N=C(COc2ccc(Cl)cc2)OC1c1ccccc1 (stereo not drawn) | 17 |
| COCCn1c(-c2cccc(OC)c2)cnc1NC(=O)NC1CCCC1 | 6.84 |

| SMILES | cytotoxicity at 70.5 h [%] |
| --- | --- |
| COCCn1c(-c2cccc(OC)c2)cnc1NC(=O)NCCC(C)C | -12.5 |
| CCOc1ccc(C(=O)Nc2c(C)nc3ccc(Cl)cn3c2=O)cc1 | -3.81 |
| COc1ccc(C(=O)Nc2c(C)nc3cccc(C)n3c2=O)cc1 | -17.1 |
| CN1CC=C(c2noc(CCC(=O)N3CCCC3)n2)CC1 | 7.74 |
| CN1CC=C(c2noc(CCC(=O)N3CCOCC3)n2)CC1 | -5.23 |
| Cc1noc2ncnc(N(C)Cc3ccco3)c12 | -16.7 |
| COc1cnc(CSc2nnc(C)s2)cc1OCC(=O)NC1CCCC1 | 2.36 |
| Cc1ccc2oc(SCC(=O)NC(C)(C)C)nc2n1 | -6.39 |
| CC(c1ccncc1)N(CCN(C)C)C(=O)Nc1ccc(Cl)cc1 (stereo not drawn) | -14.7 |
| Cc1n[nH]c2c1C(c1ccc(Cl)cc1)SCC(=O)N2 (stereo not drawn) | 10.6 |
| Cc1n[nH]c2c1C(c1ccc(Br)cc1)SCC(=O)N2 (stereo not drawn) | -8.1 |
| Cc1n[nH]c2c1C(c1ccc(O)cc1)SCC(=O)N2 (stereo not drawn) | -11 |
| COc1ccc(CN2CCCC2c2cccc(F)c2)c(OC)c1OC (stereo not drawn) | -6.93 |
| COc1cc(CN2CCCC2c2cccc(F)c2)cc(OC)c1OC (stereo not drawn) | -11.4 |
| COc1ccc(NC(=O)N2CCCC2c2ccco2)c(OC)c1 (stereo not drawn) | 10.8 |
| COc1ccc(Cl)cc1NCc1nc2[nH]c(C)c(C)c(=O)n2n1 | -4.46 |
| Cc1[nH]c2nc(CNc3cccc(Cl)c3)nn2c(=O)c1C | -11.7 |
| O=C(NC(c1ccccc1)c1cccnc1)C1CC1 (stereo not drawn) | -6.82 |
| O=C(NC(c1ccc(Cl)cc1)c1cccnc1)C1CC1 (stereo not drawn) | -7.72 |
| CCOc1ccccc1CNS(=O)(=O)c1ccc2c(c1)CCCC(=O)N2 | -9.4 |
| CCCc1nnc(SCc2cc(=O)n3c4c(sc3n2)CCCC4)[nH]1 | -6.9 |
| Cc1ccc(NC(=O)c2cnc(N3CCN(C)CC3)nc2C)cc1C | -4.49 |
| Cc1cc(C)cc(NC(=O)c2cnc(N3CCN(C)CC3)nc2C)c1 | -0.093 |
| CCC1CN(CC(=O)NCCN2CCCCC2)c2ccccc2S1 (stereo not drawn) | -3.08 |

| SMILES | cytotoxicity at 70.5 h [%] |
| --- | --- |
| O=C1COc2cc(S(=O)(=O)NCCC3=CCCCC3)c(Cl)cc2N1 | 14.7 |
| Cc1nc(-c2ccc(S(=O)(=O)N3CCCCC3)cc2)co1 | -8.94 |
| COc1cccc(CNC(=O)Cn2ccc3c(C)nn(C)c3c2=O)c1 | -5.8 |
| Cc1nn(C)c2c(=O)n(CC(=O)NCCC3=CCCCC3)ccc12 | -1.87 |
| CCOc1ccccc1CNC(=O)Cn1ccc2c(C)nn(C)c2c1=O | -5.58 |
| O=C(Cn1ccc2sccc2c1=O)NCCCc1ccccc1 | -9.43 |
| O=C(Cn1ccc2sccc2c1=O)NCCC1=CCCCC1 | -8.78 |
| CCOC(=O)Cn1c(=O)c(OCC)nc2cnccc21 | -3.59 |
| CC1=C(c2ccc(C)cc2)S(=O)(=O)N=C1N1CCc2ccccc21 | -5.39 |
| CCOc1nc2cnccc2n(CC(=O)NCc2ccco2)c1=O | -10.1 |
| CC(=O)N1N=C(COc2ccc(C)cc2)OC1c1ccc(N(C)C)cc1 (stereo not drawn) | -6.08 |
| COc1ccc(CN2CCCCCC2c2cccs2)c(O)c1 (stereo not drawn) | -7.17 |
| Cc1nn(C)cc1CN1CCCCCC1c1ccc(Cl)cc1 (stereo not drawn) | 6.75 |
| COc1cc(CN2CCCCCC2c2cccs2)cc(OC)c1O (stereo not drawn) | -2.15 |
| COc1ccc(CN2CCCCCC2c2cccs2)c(OC)c1 (stereo not drawn) | -8.21 |
| COc1cccc(CN2CCCCCC2c2sccc2C)c1O (stereo not drawn) | 1.85 |
| CCCNC(=O)Nc1ccc2c(c1)N(S(=O)(=O)CC)CC2 | -6.9 |
| CCS(=O)(=O)N1CCc2ccc(NC(=O)Nc3cccc(C)c3)cc21 | 17.9 |
| CCS(=O)(=O)N1CCc2ccc(NC(=O)NCc3ccccc3)cc21 | -3.62 |
| CCC(C)NC(=O)Cn1ccc2c(C)nn(CC)c2c1=O (stereo not drawn) | 30.5 |
| CCn1nc(C)c2ccn(CC(=O)NC3CC3)c(=O)c21 | -9.78 |
| COc1cc(N2C[C@H]3CN(CC(=O)N(C)C)C(=O)[C@H]3C2)ncn1 | 28.2 |
| CC(C)c1nc(C2CCCN2Cc2ccon2)no1 (stereo not drawn) | -10.9 |
| CCc1nc(C2CCCN2CC(=O)Nc2cc(C)on2)no1 (stereo not drawn) | -6.96 |

| SMILES | cytotoxicity at 70.5 h [%] |
| --- | --- |
| CCc1nc(C2CCCN2Cc2ccno2)no1 (stereo not drawn) | -14.3 |
| Cc1cccc(C(=O)NCc2ccccc2)n1 | -15.5 |
| Cc1noc(C(C)C)c1C(=O)NCc1cccnc1 | -16.6 |
| CNS(=O)(=O)Cc1ccc(CNC(=O)c2ccccn2)cc1 | -9.74 |
| CCNC(=O)C1CCN(Cn2nc(-c3ccc(F)cc3)oc2=O)CC1 | -13.2 |
| Cc1noc(C(C)C)c1C(=O)NCc1ccc2c(c1)OCCO2 | -5.36 |
| Cc1cccc(-c2nc(C)nn2CC(=O)NC(C)C2CC2)c1 (stereo not drawn) | -5.76 |
| Cc1nc(-c2ccccc2)n(CC(=O)NC2CCCC2)n1 | -13.6 |
| Cc1nc(CN2CCCC(NCc3cnn(C)c3)C2)no1 (stereo not drawn) | -8.69 |
| CC1CN(C)CCN1C(=O)c1ccn(-c2cccc(F)c2)n1 (stereo not drawn) | -15.8 |
| Cc1nc(CN2CCCC(NCc3nc4ccccc4s3)C2)no1 (stereo not drawn) | -17.4 |
| CC1CN(C)CCN1C(=O)c1ccn(-c2ccc(F)cc2)n1 (stereo not drawn) | -12.3 |
| Cc1cc(CN2CCN(c3ccc4nncn4n3)CC2)no1 | -11.5 |
| Cc1nc(CN2CCCC(NCc3sccc3C)C2)no1 (stereo not drawn) | -2.7 |
| CN1CCN(C2CCN(CCCOc3ccc(F)cc3)CC2)C1=O | 19.6 |
| CN1CCN(C2CCN(CCOc3ccccc3)CC2)C1=O | -14.7 |
| COc1c(C2CCCN2C(=O)c2csc(C3CC3)n2)c(C)nn1C (stereo not drawn) | 15.2 |
| CC(C)c1noc(CN2CCCC2c2noc(C(C)C)n2)n1 (stereo not drawn) | -9.32 |
| COc1ccc(CNC(C)Cn2cccn2)cc1OC (stereo not drawn) | 1.53 |
| CCN1N=C(C(=O)N2CCCC(c3nc(C)c(C)s3)C2)CCC1=O (stereo not drawn) | -0.596 |
| c1cnn(CC2CCCN2Cc2nc(C3CC3)no2)c1 (stereo not drawn) | -8.97 |
| CC(C)(C)c1nc(CN2CCCC2Cn2cncn2)no1 (stereo not drawn) | -5.99 |
| CCOc1ccccc1OC1CCN(Cc2ccn(C)c(=O)c2)CC1 | 20.3 |
| Fc1ccc(Oc2ccc(CNCC3CNc4ccnn4C3)cn2)cc1 (stereo not drawn) | -12.4 |

| SMILES | cytotoxicity at 70.5 h [%] |
| --- | --- |
| CCc1csc(C2CCCN(C(=O)c3cnc[nH]3)C2)n1 (stereo not drawn) | -7.63 |
| COc1cc(CNC(C)Cn2cccn2)cc(OC)c1 (stereo not drawn) | -9.25 |
| c1ccc(Cc2noc(CN3CCCCC3Cn3cccn3)n2)cc1 (stereo not drawn) | -9.87 |
| CC1CCCN(CCNC(=O)c2ccn(-c3ccc(F)cc3)n2)C1 (stereo not drawn) | -0.389 |
| Cc1cccc(C)c1OC1CCN(Cc2ccn(C)c(=O)c2)CC1 | -5.76 |
| COc1ccc(CNCC2CNc3ccnn3C2)cn1 (stereo not drawn) | -3.27 |
| CC(C)C(NC(=O)NCCNc1cnccn1)c1cccs1 (stereo not drawn) | -11.6 |
| Cc1nc(-c2ccccc2)sc1CNC1CCc2ncnn2C1 (stereo not drawn) | -10.6 |
| Fc1ccc(-c2nc(CNC3CCc4ncnn4C3)co2)cc1 (stereo not drawn) | -4.87 |
| Cc1cc(CNC(=O)NCc2cccs2)no1 | -5.03 |
| CCc1csc(C2CCCN(C(=O)c3cc(C4CC4)[nH]n3)C2)n1 (stereo not drawn) | -7.48 |
| CC(C)c1nc(CN2CCCCC2Cn2cncn2)cs1 (stereo not drawn) | 16.2 |
| CN(Cc1cscn1)C1CCCN(c2cccnn2)C1 (stereo not drawn) | 18 |
| CCc1nc(CN(C)C2CCCN(c3cccnn3)C2)no1 (stereo not drawn) | 16.7 |
| CCc1nnc(CN2CCCCC2Cn2nc(C)nc2C)o1 (stereo not drawn) | -5.83 |
| CC(C)C(Sc1nnnn1C1CC1)C(=O)NCc1ccccc1 (stereo not drawn) | -7.04 |
| Cc1ccc(-c2noc(CN3CCC(N4CCNC4=O)CC3)n2)cc1 | 20.8 |
| Cc1cc(C)n(CC2CN(CC(=O)Nc3ccncc3)CCO2)n1 (stereo not drawn) | -2.52 |
| Cc1cc(C)n(CC2CN(CC(=O)NC3CCOCC3)CCO2)n1 (stereo not drawn) | 15.9 |
| CC(C)OCCCN(CC(=O)N1CCNCC1)C(=O)c1cccc(Cl)c1 | -18.5 |
| O=C([C@@H]1COC[C@H]2CN(CC3CC3)C[C@H]21)N1CCC(F)CC1 | 32.5 |
| CCN1CCCC12CCN(Cc1cccnc1OC)CC2 | -4.58 |
